Source: ChEMBL document CHEMBL2331428, “Synthesis of tetrazole analogues of phosphonohydroxamic acids: an attempt to improve the inhibitory activity against the DXR” (Bioorg Med Chem Lett, 2013)
Activity calls are given as the source filed them. The calls are words filed in the database; no cut-off is given here.

Tests used:
Escherichia coli = experiment: Antibacterial activity against Escherichia coli assessed as growth inhibition at 400 nmol by disc diffusion method; type: functional, organism-based
[1] = Inhibition of N-terminal His6-tagged Escherichia coli DXR after 2 mins in presence of NADPH

| Compound | IC50 [1] | growth inhibition (GI) (Escherichia coli) |
| --- | --- | --- |
| CN(O)C(=O)CCc1nnn[nH]1 | 47000 µM | inactive |
| CN(O)C(=O)CCCP(=O)(O)O | 0.048 µM | – |
| O=C(CCCCc1nnn[nH]1)NO | 44000 µM | inactive |

More lines, in order of falling IC50 [1], values ahead:

| IC50 [1] | Compound | growth inhibition (GI) (Escherichia coli) |
| --- | --- | --- |
| 4900 µM | CN(O)C(=O)CCCCc1nnn[nH]1 | inactive |
| 800 µM | CN(O)C(=O)CCCc1nnn[nH]1 | inactive |
| 0.032 µM | O=CN(O)CCCP(=O)(O)O [FOSMIDOMYCIN] | – |
